Measurements published in ChEMBL document CHEMBL3399962, “Design and synthesis of a novel candidate compound NTI-007 targeting sodium taurocholate cotransporting polypeptide [NTCP]-APOA1-HBx-Beclin1-mediated autophagic pathway in HBV therapy” (Bioorg Med Chem, 2015).
Activity calls are given as the source filed them. No cut-off for these calls is given here.

Columns and labels:
[1] = Selectivity index, ratio of CC50 for human HepG2.2.15 cells to IC50 for decrease in hepatitis B viral surface antigen HBsAg secretion in human HepG2.2.15 cells; format: functional
[2] = Selectivity index, ratio of CC50 for human HepG2.2.15 cells to IC50 for decrease in hepatitis B viral HBeAg secretion in human HepG2.2.15 cells; format: functional
Hepatitis B virus [3] = experiment: Antiviral activity against hepatitis B viral in human HepG2.2.15 cells assessed as viral DNA replication after 9 days by real-time PCR analysis (reference value: 6.12 +/- 1.46 AU); format: functional, HepG2 2.2.15
Hepatitis B virus [4] = experiment: Antiviral activity against hepatitis B viral in human HepG2.2.15 cells assessed as viral surface antigen HBsAg level after 9 days by ELISA (reference value: 721 +/- 32 pg/ml); format: functional, HepG2 2.2.15
Hepatitis B virus [5] = experiment: Antiviral activity against hepatitis B viral in human HepG2.2.15 cells assessed as viral HBcAg level after 9 days by ELISA (reference value: 14.16 +/- 1.92 ng/ml); format: functional, HepG2 2.2.15
[6] = Cytotoxicity against human HepG2.2.15 cells assessed as cell death after 9 days by MTS assay; format: cell-based, HepG2 2.2.15
Hepatitis B virus [7] = experiment: Antiviral activity against hepatitis B viral in human HepG2.2.15 cells assessed as surface antigen HBsAg secretion after 9 days by ELISA; format: functional, organism-based; conditions: HepG2 2.2.15, 216 h
Hepatitis B virus [8] = experiment: Antiviral activity against hepatitis B viral in human HepG2.2.15 cells assessed as HBeAg secretion after 9 days by ELISA; format: functional, organism-based; conditions: HepG2 2.2.15, 216 h
[9] = Antiproliferative activity against human HepG2.2.15 cells assessed as cell growth at 20 uM after 0 to 24 hrs by MTT assay; format: cell-based; conditions: hepg2 2.2.15, 20 µM
HepG2 2.2.15 [10] = experiment: Induction of autophagy in HBV-infected human HepG2.2.15 cells assessed as decrease in NTCP level after 12 to 24 hrs by Western blot analysis; format: functional
HepG2 2.2.15 [11] = experiment: Induction of autophagy in HBV-infected human HepG2.2.15 cells assessed as decrease in APOA1 level after 12 to 24 hrs by Western blot analysis; format: functional
HepG2 2.2.15 [12] = experiment: Induction of autophagy in HBV-infected human HepG2.2.15 cells assessed as decrease in HBx level after 12 to 24 hrs by Western blot analysis; format: functional
[13] = molecular target: Sodium/bile acid cotransporter NTCP (Homo sapiens) (UniProt Q14973); experiment: Induction of human NTCP receptor inhibition-mediated autophagy in HBV-infected human HepG2.2.15 cells assessed as MDC positive cells at 20 uM after 12 hrs by […] (reference value: 0.60%); parameters: scale not given: the % may be the effect or the level left
[14] = molecular target: Sodium/bile acid cotransporter NTCP (Homo sapiens) (UniProt Q14973); experiment: Induction of human NTCP receptor inhibition-mediated autophagy in HBV-infected human HepG2.2.15 cells assessed as MDC positive cells at 20 uM after 24 hrs by […] (reference value: 0.60%); parameters: scale not given: the % may be the effect or the level left

Sodium/bile acid cotransporter NTCP (Homo sapiens), sequence (Q14973 whole entry, looked up): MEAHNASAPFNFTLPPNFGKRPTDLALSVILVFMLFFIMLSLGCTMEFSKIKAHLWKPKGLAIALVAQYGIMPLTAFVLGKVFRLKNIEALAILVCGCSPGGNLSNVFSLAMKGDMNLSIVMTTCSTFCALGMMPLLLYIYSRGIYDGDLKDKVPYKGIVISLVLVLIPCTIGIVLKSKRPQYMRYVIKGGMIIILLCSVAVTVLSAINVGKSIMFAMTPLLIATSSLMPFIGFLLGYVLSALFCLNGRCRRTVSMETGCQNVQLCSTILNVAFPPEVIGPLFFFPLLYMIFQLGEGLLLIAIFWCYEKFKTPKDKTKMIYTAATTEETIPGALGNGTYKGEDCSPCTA

Row | Structure (SMILES) | Selectivity Index [1] | Selectivity Index [2] | Activity (Hepatitis B virus [3]) [a.u.] | Activity (Hepatitis B virus [4]) [pg/mL] | Activity (Hepatitis B virus [5]) [pg/mL] | CC50 at 216 h [6] [µM] | IC50 (Hepatitis B virus [7]) [µM] | IC50 (Hepatitis B virus [8]) [µM] | Activity [9] | inhibition (HepG2 2.2.15 [10]) | inhibition (HepG2 2.2.15 [11]) | inhibition (HepG2 2.2.15 [12]) | Activity [13] [%] | Activity [14] [%]
1 | COC(=O)Nc1nc2cc(C(=O)c3ccc(F)cc3)ccc2[nH]1 [FLUBENDAZOLE] | 2.5 | 4.75 | 3.76 | 361 | 10100 |  |  |  |  |  |  |  |  | 
2 | COC(=O)Nc1nc2nc(C(=O)c3ccc(OC)c(OC)c3)ccc2[nH]1 | 2.74 | 1.3 |  |  |  | 102 | 37.3 | 78.4 |  |  |  |  |  | 
3 | COC(=O)Nc1nc2cc(C(=O)c3cccc(F)c3)ccc2[nH]1 | 0.09 | 0.05 |  |  |  | 21.2 | 245 | 397 |  |  |  |  |  | 
4 | COC(=O)Nc1nc2ccc(C(=O)c3ccccc3)cc2[nH]1 [MEBENDAZOLE] |  |  |  |  |  | > 1000 | > 1000 | > 1000 |  |  |  |  |  | 
5 | COC(=O)Nc1nc2cc(C(=O)c3ccc(O)c(OC)c3)ccc2[nH]1 | 3.55 | 0.49 |  |  |  | 105 | 29.7 | 216 |  |  |  |  |  | 
6 | COC(=O)Nc1nc2nc(C(=O)c3ccc(O)c(OC)c3)ccc2[nH]1 | 11 | 7.86 | 2.46 | 258 | 8140 | 197 | 17.9 | 25.1 | Toxic | Active | Active | Active | 9.3 | 31.1
7 | COC(=O)Nc1nc2cc(C(=O)c3cccc(OC)c3)ccc2[nH]1 | 1.19 | 0.24 |  |  |  | 117 | 97.5 | 479 |  |  |  |  |  | 
8 | COC(=O)Nc1nc2cc(C(=O)c3ccccn3)ccc2[nH]1 |  |  |  |  |  | > 1000 | > 1000 | > 1000 |  |  |  |  |  | 
9 | COC(=O)Nc1nc2cc(C(=O)c3ccc(OC)c(OC)c3)ccc2[nH]1 | 0.25 | 0.15 |  |  |  | 48.5 | 190 | 312 |  |  |  |  |  | 
10 | COC(=O)Nc1nc2cc(C(=O)c3ccco3)ccc2[nH]1 |  |  |  |  |  | > 1000 | > 1000 | > 1000 |  |  |  |  |  | 
11 | Nc1ncnc2c1ncn2CCOCP(=O)(O)O [ADEFOVIR] | 1.9 | 2.27 | 4.12 | 571 | 12100 | 490 | 257 | 215 |  |  |  |  |  | 
12 | COC(=O)Nc1nc2nc(C(=O)c3cccc(OC)c3)ccc2[nH]1 | 1.89 | 0.47 |  |  |  | 78.1 | 41.2 | 167 |  |  |  |  |  | 
